Experimental data: patent US9775881B2, “Methods of treating mesothelioma by administration of compounds comprising FGFR1 ECD” (Five Prime Therapeutics, Inc., priority 2013, dated 2017)

Legend:
Format in all cases: in vivo, mouse
HepG2 xenograft model [1] = assay: HepG2 xenograft model, FGFR1-ECD.339-Fc alone and with sorafenib
Method: FGFR1-ECD.339-Fc as a single agent, and in combination with sorafenib, was also tested in a HepG2 xenograft model.

SK-Hep-1 xenograft model [2] = assay: SK-Hep-1 xenograft model, FGFR1-ECD.339-Fc alone and with sorafenib; conditions: 61 days, FGFR1-ECD.339-Fc 15 mg/kg IP twice per week (p=0.0036), sorafenib 20 mg/kg oral five times per week (p<0.0001)
Method: (§1) The cells were implanted subcutaneously over the right flank of the mice at 5×10^6 cells/100 μl/mouse.

HLF xenograft model = assay: HLF xenograft model, FGFR1-ECD.339-Fc alone and with sorafenib; conditions: 24 days, FGFR1-ECD.339-Fc 15 mg/kg IP twice per week (p=0.0175), sorafenib 20 mg/kg oral five times per week (p=0.0020)
Method: Six week old female CB17 SCID mice were purchased from Charles River Laboratories (Wilmington, Mass.) and were acclimated for 1 week before the start of the study. […] The cells were cultured for three passages in complete growth medium to expand for implantation. HLF cells were cultured in Dulbecco's Modified Eagle Medium (DMEM) supplemented with 10% Fetal Bovine Serum (FBS) and Antibiotic-Antimycotic solution. Cells were grown at 37° C. in a humidified atmosphere with 5% CO2.
The cells were implanted subcutaneously over the right flank of the mice at 2.5×10^6 cells/100 μl/mouse. Mice were monitored twice weekly following cell implantation for tumor growth. […]
FGFR1-ECD.339-Fc or albumin as a negative control, was dosed at 15 mg/kg via intraperitoneal (IP) injection twice per week. […] Upon initiation of therapy, tumor sizes were measured in each mouse twice weekly. The length and width of each tumor was measured using calipers and the tumor size calculated according to the formula above. […]
Comparisons of tumor volume as a consequence of treatment with FGFR1-ECD.339-Fc and/or sorafenib were determined to be statistically significant if P<0.05. P-values were calculated using unpaired, two-tailed t-test analyses of the calculated tumor volumes on day 24 following initiation of treatment.

NCI-H226 xenograft = assay: NCI-H226 mesothelioma tumor xenograft model, dose response; conditions: SCID mice, day 29
Method: Seven week old female SCID mice (Taconic, Hudson, N.Y.) were implanted subcutaneously with NCI-H226 cells (ATCC, Manassas, Va.) at 5×10^6 cells/mouse and tumor-bearing mice were randomized into 4 groups (n=8/group) when tumors reached ˜176-277 mm^3 in size. Mice were treated with FGFR1-ECD.339-Fc at three different concentrations (1.024, 5.12 or 25.6 mg/kg) three times a week (t.i.w.) for 29 days. Tumor size and body weights were measured twice a week.

A498 xenograft model = assay: A498 xenograft model, FGFR1-ECD.339-Fc alone and with pazopanib; conditions: FGFR1-ECD.339-Fc 15 mg/kg IP twice per week, pazopanib 100 mg/kg oral daily
Method: as §1

Hep3B xenograft model = assay: Hep3B xenograft model, FGFR1-ECD.339-Fc single agent; conditions: 15 mg/kg IP twice per week
Method: (§2) Six week old female CB17 SCID mice were purchased from Charles River Laboratories (Wilmington, Mass.) and were acclimated for 1 week before the start of the study. Human hepatocellular carcinoma (HCC) cell lines HepG2 and Hep3B were purchased from ATCC (Manassas, Va.) and Huh7 was purchased from JCRB (Japanese Collection of Research Bioresources). The cells were cultured for three passages in complete growth medium to expand for implantation. HepG2 and Hep3B cells were cultured in Dulbecco's Modified Eagle Medium (DMEM) supplemented with 10% Fetal Bovine Serum (FBS), 2 mM L-Glutamine, and Penicillin-Streptomycin antibiotic solution. […]
(§3) When the cultured cells reached 85-90% confluence, cells were harvested and resuspended in cold Ca^2+ and Mg^2+ free phosphate buffered saline (PBS) containing 50% Matrigel. […] Mice were monitored twice weekly following cell implantation for tumor growth.
(§4) FGFR1-ECD.339-Fc (FP-1039) or albumin as a negative control was dosed at 15 mg/kg via intraperitoneal injection twice per week. […] Upon initiation of therapy, tumor sizes were measured in each mouse twice weekly. The length and width of each tumor was measured using calipers and the tumor size calculated according to the formula Tumor size (mm^3)=[…]. […]
(§5) Comparisons of tumor volume as a consequence of treatment with FP-1039 were determined to be statistically significant if P<0.05. […]

786-0 xenograft model = assay: 786-0 xenograft model, FGFR1-ECD.339-Fc alone and with pazopanib; conditions: FGFR1-ECD.339-Fc 15 mg/kg IP twice per week, pazopanib 100 mg/kg oral daily
Method: as §1

ACHN xenograft model = assay: ACHN xenograft model, FGFR1-ECD.339-Fc alone and with pazopanib
Method: as §1

SK-Hep-1 xenograft model [3] = assay: SK-Hep-1 xenograft model, FGFR1-ECD.339-Fc alone and with pazopanib; conditions: 15 mg/kg IP twice per week, p=0.0076
Method: as §1

MSTO-211H xenograft = assay: MSTO-211H mesothelioma tumor xenograft model, dose response; conditions: SCID mice, day 29
Method: Five to six week old female SCID mice were implanted subcutaneously with MSTO-211H cells (ATCC, Manassas, Va.) at 5×10^6 cells/mouse and tumor-bearing mice were randomized into 3 groups (n=10/group) when tumors reached ˜150-225 mm^3 in size. Mice were treated with FGFR1-ECD.339-Fc at two different concentrations (5.12 or 25.6 mg/kg) three times a week (t.i.w.) for 29 days. Tumor size and body weights were measured twice a week.

Huh7 xenograft model = assay: Huh7 xenograft model, FGFR1-ECD.339-Fc single agent; conditions: 15 mg/kg IP twice per week
Method: as §2, §3, §4, §5

HepG2 xenograft model [4] = assay: HepG2 xenograft model, FGFR1-ECD.339-Fc single agent; conditions: 15 mg/kg IP twice per week
Method: as §2, §3, §4, §5

Caki-2 xenograft model = assay: Caki-2 xenograft model, FGFR1-ECD.339-Fc alone and with pazopanib; conditions: FGFR1-ECD.339-Fc 15 mg/kg IP twice per week, pazopanib 100 mg/kg oral daily
Method: as §1

[5] = system: NCI-H226 (mesothelioma) xenograft; assay: Blood vessel density by MECA-32 IHC in NCI-H226 xenograft tumors; conditions: NCI-H226 tumors harvested day 30; 1.024, 5.12 or 25.6 mg/kg t.i.w. for 29 days
Method: Endothelial cell immunohistochemical (IHC) staining using a rat anti-mouse pan-endothelial cell antigen antibody (MECA-32; BD Biosciences, Franklin Lakes, N.J.) was performed on tumors from a NCI-H226 (mesothelioma) xenograft study. Tumor-bearing mice were treated with either vehicle (0.9% saline) or increasing doses of FGFR1-ECD.339-Fc (1.024, 5.12, or 25.6 mg/kg) three times a week (t.i.w.) for 29 days, as described above. Tumors were harvested on day 30. Quantification of MECA-32 IHC staining was analyzed by measuring the number of blood vessels/tissue area.

Row | Compound | single agent effect on tumor growth (HepG2 xenograft model [1]) | response of xenograft model to single therapy (tumor volume) (SK-Hep-1 xenograft model [2]) | response of xenograft model to single therapy (tumor volume) (HLF xenograft model) | tumor growth inhibition (TGI) (NCI-H226 xenograft; 1.024 mg/kg three times a week) [%] | tumor growth inhibition (TGI) (NCI-H226 xenograft; 5.12 mg/kg three times a week) [%] | tumor growth inhibition (TGI) (NCI-H226 xenograft; 25.6 mg/kg three times a week) [%] | response of xenograft model to single therapy (tumor volume) (A498 xenograft model) | single agent efficacy (tumor volume) (Hep3B xenograft model) | response of xenograft model to single therapy (tumor volume) (786-0 xenograft model) | tumor growth inhibition (ACHN xenograft model; CB17 SCID mice, 15 mg/kg IP twice per week, day 63, p<0.0001) [%] | response of xenograft model to single therapy (tumor volume) (ACHN xenograft model; FGFR1-ECD.339-Fc 15 mg/kg IP twice per week) | response of xenograft model to single therapy (tumor volume) (SK-Hep-1 xenograft model [3]) | tumor growth inhibition (TGI) (MSTO-211H xenograft; 5.12 mg/kg three times a week) [%] | tumor growth inhibition (TGI) (MSTO-211H xenograft; 25.6 mg/kg three times a week) [%] | single agent efficacy (tumor volume) (Huh7 xenograft model) | single agent efficacy (tumor volume) (HepG2 xenograft model [4]) | response of xenograft model to single therapy (tumor volume) (Caki-2 xenograft model) | blood vessel density (MECA-32 IHC), inner region [5] | blood vessel density (MECA-32 IHC), outer region [5] | blood vessel density (MECA-32 IHC), outer+inner region (whole tumor mass) [5]
1 | CNC(=O)c1cc(Oc2ccc(NC(=O)Nc3ccc(Cl)c(C(F)(F)F)c3)cc2)ccn1 [sorafenib, reference compound] | inhibits tumor growth | responded | responded | – | – | – | – | – | – | – | – | – | – | – | – | – | – | – | – | –
2 | FGFR1-ECD.339-Fc: human FGFR1 extracellular domain ending at amino acid 339 fused to Fc; SEQ ID NO: 6 (mature form) or SEQ ID NO: 5 (with signal peptide) | not effective as a single agent | responded | responded | 16.2 | 56.8 | 77.8 | little response | no single agent efficacy | did not respond | 51 | responded | responded | 20.3 | 50.1 | no single agent efficacy | no single agent efficacy | little response | no significant differences | dose-dependent and a statistically-significant reduction | dose-dependent and a statistically-significant reduction
